Results from patent US20250381256A1 (priority 2022, published 2025).
“Also recorded” adds a separate entry of the source. Square brackets hold non-standard residues; d marks the D form. Ends that are not written are not given here. Cha = N[C@@H](CC1CCCCC1)C(=O)O

Tests used:
[1] = test system: gut microbiome; test: Microbiome analysis of fecal pellets (16S rRNA sequencing); type: in vivo, C57BL/6 mice
Procedure: Microbiome Analysis. Fecal pellets were collected from mice and immediately frozen on dry ice prior to storage at −80° C. Samples were submitted to the Duke Center for Genomic and Computational Biology Microbiome Shared Resource core for microbiome analyses. In brief, the Duke Microbiome Core Facility (MCF) extracted DNA using the Qiagen PowerSoilPro DNA Kit (Qiagen, 47014). Bacterial community composition in isolated DNA samples was characterized by amplification of the V4 variable region of the 16S rRNA gene by polymerase chain reaction using the forward primer 515 and reverse primer 806 following the Earth Microbiome Project protocol (http://www.earthmicrobiome.org/). These primers (515F and 806R) carry unique barcodes that allow for multiplexed sequencing. Concentration of the PCR products were accessed using a Qubit dsDNA HS assay kit (ThermoFisher, Q32854) and a Promega GloMax plate reader. Equimolar 16S rRNA PCR products from all samples were pooled prior to sequencing, which was performed by the Duke Sequencing and Genomic Technologies (SGT) shared resource on an Illumina MiSeq instrument configured for 250 base-pair paired-end sequencing runs.
Sequences were analyzed using QIIME2 software. Demultiplexed forward reads were assigned a cut off between 10-230 bp and reverse reads were assigned a cut off between 10-160 bp. […]

[2] = test system: CFT073 uropathogenic E. coli; test: Transurethral infection model with CFT073; settings: 5×10^7 CFU CFT073, vs control OVA vaccine
Procedure: Bacterial Culture and Challenge Model. The uropathogenic E. coli strain CFT073 was purchased from ATCC (700928); this strain was originally isolated from a pyelonephritis patient. CFT073 was cultured at 37° C. with aeration in Luria broth (10 g/L tryptone, 5 g/L yeast extract, 10 g/L sodium chloride) at a 1:100 dilution from a starter culture.
For the transurethral infection model, water supply was removed from cages for one hour prior to infection to allow for voiding of bladder. Mice were sedated with an i.p. injection of a ketamine/xylazine cocktail and a sterilized plastic needle dabbed in surgical lubricant was used to deliver 5×10^7 CFU of CFT073 into the urethra. Mice were monitored as for the bacteremia model, but with sacrifice at 48 h.

[3] = test system: 1:1:1 mixture of plreA, plutA, and plroN; test: Urinary antibody ELISA on undiluted urine of immunized mice; settings: one nanofiber and three nanofiber groups combined
Procedure: Animals and Immunizations. […] Murine immunizations were initiated with female C57BL/6 mice (Envigo) aged 9-12 weeks. For sublingual immunizations, mice were deeply anesthetized by a cocktail delivering 100 mg/kg ketamine and 10 mg/kg xylazine. For droplet immunizations, a micropipette with a 20 μL tip was used to apply 8 μL of the immunizing solution below the tongue. For tablet immunizations, the tablet was placed below the tongue of anesthetized mice using tweezers. For droplet and tablet immunizations, the mouse's heads were placed in anteflexion for 20 min following administration to prevent swallowing of the material.
Measurement of Antibody Responses. Serum was collected via the submandibular vein. For analysis of epitope-specific IgG by ELISA, plates were coated with 20 μg/mL of streptavidin (Millipore Sigma, 189730) overnight at 4° C. Plates were washed with 0.5 g/L Tween-20 in PBS (1×PBST), coated for 1 hour with 20 μg/mL biotinylated plreA, pluta, or plroN, and blocked with Super Block Blocking Buffer (Thermo Scientific, 37515). […] Sera diluted in PBST-BSA or undiluted urine were added to the plate, and antigen-specific IgG was detected by horseradish peroxidase (HRP) conjugated Fcγ fragment specific goat anti-mouse IgG (Jackson Immuno Research, 15-035-071). […]

[4] = test system: OVA323-339; test: Anti-OVA antibody responses after sublingual nanofiber immunization of mice; type: in vivo
[5] = target: T1, I-Ab (Mus musculus, UniProt P14434+P14483); settings: haplotype of C57BL/6 mice; read-out: Reported affinity for I-Ab; cited from earlier work
T1 sequence (P14434 24-256): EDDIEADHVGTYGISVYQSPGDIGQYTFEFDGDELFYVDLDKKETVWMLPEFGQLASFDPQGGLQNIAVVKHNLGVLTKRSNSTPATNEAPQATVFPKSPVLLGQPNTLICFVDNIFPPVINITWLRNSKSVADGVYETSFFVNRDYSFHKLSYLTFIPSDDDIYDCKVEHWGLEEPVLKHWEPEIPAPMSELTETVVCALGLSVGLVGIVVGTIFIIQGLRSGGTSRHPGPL
T1 sequence (P14483 28-265): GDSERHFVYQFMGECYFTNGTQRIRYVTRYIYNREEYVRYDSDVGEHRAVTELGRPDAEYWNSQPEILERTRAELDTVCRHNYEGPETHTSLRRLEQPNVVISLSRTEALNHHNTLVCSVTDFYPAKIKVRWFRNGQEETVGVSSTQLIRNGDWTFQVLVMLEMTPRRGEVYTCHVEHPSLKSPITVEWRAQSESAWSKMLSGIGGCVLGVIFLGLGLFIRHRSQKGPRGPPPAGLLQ

[6] = Nanofiber structure after freeze-drying, tabletization and dissolution (atomic force microscopy); type: physicochemical; settings: various levels of cryoprotectant sugars
Procedure: FIG. 16. SIMPL tablets incorporating Coil29-based nanofibers. Top panel: epitope-containing peptide nanofibers were assembled in buffer, then cryoprotectant sugars were added, and tablets were formed by freeze drying. Bottom panel: Tablets were stable enough for handling (left), and Coil29 nanofibers retained their structure after freeze-drying, tabletization, and dissolution (images by atomic force microscopy).

Molecule: C[C@@H]1O[C@@H]1P(=O)(O)O [Fosfomycin]
- OTU richness of the microbiome ([1]; week 13 (vaccine) or week 13.5 (after 3 daily doses of 1000 mg/kg Fosfomycin)): drastically reduced
- Shannon diversity index (α-diversity) ([1]; week 13 (vaccine) or week 13.5 (antibiotic)): highly significantly different from these groups
- Body temperature after transurethral challenge [2]: maintained significantly higher temperatures than mice given the control vaccine

Molecule: Nc1ncnc2c1ncn2[C@@H]1O[C@@H]2COP(=O)(O)O[C@H]3[C@@H](O)[C@H](n4cnc5c(N)ncnc54)O[C@@H]3COP(=O)(O)O[C@H]2[C@H]1O [cyclic-di-AMP]
- Epitope-specific IgA levels in the urine, adjuvant comparison ([3]; cyclic-di-AMP vs CTB (p=0.038)): significantly higher epitope-specific IgA levels in the urine than CTB
- Epitope-specific IgG levels in the urine, adjuvant comparison ([3]; cyclic-di-AMP vs CTB (p=0.38)): did not differ significantly
- Serum IgG titers at reduced adjuvant dose ([4]; 1 μg c-di-AMP with 8 μL of 5 mM OVA-Coil29, sublingual): equivalent titers to 10 times that dose; also recorded: sufficient to raise strong titers

Molecule: PADRE ([dA]K[Cha]VAAWTLKA[dA]) [aKXVAAWTLKAa]
- Kd [5]: 94 nM

Molecule: QARILEADAEILRAYARILEAHAEILRAQ (Ac-QARILEADAEILRAYARILEAHAEILRAQ-NH2) [Coil29]
- Sublingual immunogenicity after tabletization ([4]; SIMPL tablets, range of peptide and cryoprotectant sugar concentrations, 10 μg c-di-AMP): sublingually immunogenic
- Sublingual immunogenicity ([4]; mouse models, Coil29 nanofibers, liquid formulations): did not depend on PASylation for immunogenicity
- Nanofibrillar structure in tablets [6]: retained their nanofibrillar structure

Molecule: QLVFNSISARALKAY [VAC]
- Kd [5]: 13.5 nM
